We go through 7 compounds from PubChem BioAssay (NCI).

Among the test systems are HL-60(TB) leukemia; MCF7 breast; SN12C renal; A498 renal; HCT-116 colon; U251 CNS; SF-268 CNS; EKVX NSCLC; HS 578T breast; OVCAR-8 ovarian.
What all share (assay): NCI anticancer screen, dose series, 48 h

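Step 1: Grow cells in 96-well plates. Step 2: Expose to compound for 48 hours at 5 concentrations. Step 3: Interpolate endpoints linearly; if unreached, use highest concentration. GI50: concentration for 50% inhibition of growth. TGI denotes the concentration required for complete inhibition of growth.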 Some results are limits rather than exact numbers.

For `Nc1ccc(-c2nc3ccccc3[nH]2)c(O)c1`, the GI50 is 40.4 µM with HL-60(TB) leukemia; 30.3 µM in the test with MCF7 breast; 42.4 µM with SN12C renal; 31.9 µM with A498 renal; 16.3 µM with HCT-116 colon; 60.3 µM in the test on U251 CNS. Also, the GI50 was 27.6 µM in the test on SF-268 CNS, 15.1 µM with EKVX NSCLC, 21.5 µM in the test on HS 578T breast and 42.3 µM in the test on OVCAR-8 ovarian. Besides, the TGI in the test on HL-60(TB) leukemia was above 100 µM; with MCF7 breast, above 100 µM; in the test on SN12C renal, above 100 µM; in the test with A498 renal it was 68.5 µM; with HCT-116 colon, 40.7 µM; in the test with U251 CNS, above 100 µM. Further, the TGI is above 100 µM in the test with SF-268 CNS, above 100 µM in the test on EKVX NSCLC, 71.7 µM in the test with HS 578T breast and above 100 µM with OVCAR-8 ovarian.
Take `O=c1[nH]cnc2c1nnn2C1OC(CO)C(O)C1O` (stereo not drawn): the GI50 was 0.617 µM with HL-60(TB) leukemia; 1.41 µM with MCF7 breast; 6.57 µM in the test on SN12C renal; 5 µM in the test on A498 renal; 3.88 µM in the test on HCT-116 colon; 20.4 µM in the test with U251 CNS. Also, the GI50 with SF-268 CNS was 6.81 µM; with EKVX NSCLC, 60.4 µM; with HS 578T breast, 4.27 µM; in the test on OVCAR-8 ovarian it was 0.683 µM. Further, the TGI with HL-60(TB) leukemia is above 43.9 µM; in the test with MCF7 breast, above 78.8 µM; in the test on SN12C renal it was above 100 µM; in the test on A498 renal, above 100 µM; in the test with HCT-116 colon, above 100 µM; in the test on U251 CNS, above 100 µM. For the same compound, the TGI with SF-268 CNS is above 100 µM; in the test on EKVX NSCLC it was above 100 µM; in the test on HS 578T breast it was 69.8 µM; in the test on OVCAR-8 ovarian, above 100 µM.
For the compound `CCCCCCCCCCCCCCCC(=O)OCC1OC(n2cnc3c(=S)nc(N)[nH]c32)C(OC(=O)CCCCCCCCCCCCCCC)C1OC(=O)CCCCCCCCCCCCCCC` (stereo not drawn), the GI50 in the test with HL-60(TB) leukemia is above 35.6 µM; in the test on MCF7 breast, 1.65 µM; in the test on SN12C renal it was 18.3 µM; with A498 renal it was above 25.1 µM; in the test on HCT-116 colon, 1.8 µM; in the test with U251 CNS it was 24.1 µM. Moreover, the GI50 is 7.9 µM in the test on SF-268 CNS, 6.15 µM in the test with EKVX NSCLC, 13 µM in the test on HS 578T breast and 3.42 µM in the test with OVCAR-8 ovarian. The TGI was above 50 µM with HL-60(TB) leukemia; above 26.1 µM with MCF7 breast; above 50 µM in the test with SN12C renal; above 50 µM in the test on A498 renal; above 50 µM in the test on HCT-116 colon; above 50 µM in the test with U251 CNS. Besides, the TGI with SF-268 CNS, in the test with EKVX NSCLC, in the test with HS 578T breast and with OVCAR-8 ovarian was above 50 µM in each case.
As for `CC/C=C\C/C=C\C[C@H](O)C/C=C1/C(=O)C=C[C@H]1C/C=C\CCC(=O)OC`, the GI50 with HL-60(TB) leukemia is 2.49 µM; in the test with MCF7 breast, 2.43 µM; in the test with SN12C renal it was 2.62 µM; in the test on A498 renal, above 8.25 µM; in the test with HCT-116 colon it was 1.55 µM; in the test with U251 CNS it was 2.66 µM. Besides, the GI50 was 3.04 µM with SF-268 CNS, above 8.25 µM in the test with EKVX NSCLC, 7.66 µM with HS 578T breast and 2.51 µM in the test with OVCAR-8 ovarian. Also, the TGI in the test on HL-60(TB) leukemia was above 8.25 µM; with MCF7 breast it was above 8.25 µM; with SN12C renal, above 8.25 µM; with A498 renal, above 8.25 µM; in the test with HCT-116 colon, 3.15 µM; in the test on U251 CNS, above 8.25 µM. Also, the TGI in the test with SF-268 CNS, with EKVX NSCLC, in the test on HS 578T breast and in the test with OVCAR-8 ovarian was above 8.25 µM throughout.
As to `O=C(Nc1ccc(Cl)cc1)c1cc2c(cc1O)[nH]c1ccccc12`, the GI50 in the test with HL-60(TB) leukemia was 4.43 µM; in the test on MCF7 breast it was 2.56 µM; with SN12C renal it was 2.93 µM; in the test on A498 renal, 2.56 µM; in the test with HCT-116 colon it was 2.95 µM; in the test with U251 CNS, 3.18 µM. The GI50 in the test with SF-268 CNS is 3.92 µM; in the test with EKVX NSCLC, 2.16 µM; with HS 578T breast, 3.08 µM; with OVCAR-8 ovarian, 3.25 µM. Moreover, the TGI in the test with HL-60(TB) leukemia was above 100 µM; with MCF7 breast, 10 µM; in the test with SN12C renal, 11.3 µM; with A498 renal it was 7.29 µM; in the test on HCT-116 colon, 10.3 µM; with U251 CNS, 11.3 µM. Also, the TGI in the test on SF-268 CNS was 14.7 µM; with EKVX NSCLC, 7.89 µM; with HS 578T breast it was 14.5 µM; in the test on OVCAR-8 ovarian it was 12.9 µM.
Take `CN(C)c1ccc(C(=O)c2ccc(N(C)C)c(N)c2)cc1N`: the GI50 in the test with HL-60(TB) leukemia is 1.29 µM; in the test with MCF7 breast it was 0.686 µM; in the test with SN12C renal it was 6.08 µM; in the test on A498 renal, 1.03 µM; in the test with HCT-116 colon, 2.4 µM; in the test on U251 CNS it was 2.79 µM. Moreover, the GI50 with SF-268 CNS was 10.2 µM; in the test with EKVX NSCLC it was 8.87 µM; with HS 578T breast it was 1.75 µM; in the test on OVCAR-8 ovarian, 8.99 µM. The TGI was 9.08 µM in the test with HL-60(TB) leukemia; above 59.9 µM with MCF7 breast; above 100 µM in the test on SN12C renal; 18.1 µM in the test with A498 renal; 31.3 µM with HCT-116 colon; above 100 µM in the test on U251 CNS. The TGI in the test on SF-268 CNS is above 100 µM; with EKVX NSCLC it was above 100 µM; in the test on HS 578T breast it was above 21.2 µM; in the test with OVCAR-8 ovarian, above 100 µM.
As for `CN(C)C(=S)NN=C(c1ccccn1)c1ccccn1`, the GI50 with HL-60(TB) leukemia is below 0.0479 µM; with MCF7 breast, below 0.01 µM; with SN12C renal it was 0.0971 µM; in the test on A498 renal, 0.191 µM; in the test with HCT-116 colon it was below 0.01 µM; with U251 CNS it was below 0.01 µM. For the same compound, the GI50 with SF-268 CNS was below 0.0362 µM; in the test on EKVX NSCLC, 0.0247 µM; in the test on OVCAR-8 ovarian, 0.0361 µM. Moreover, the TGI with MCF7 breast was above 47.4 µM; in the test on SN12C renal, 33.4 µM; in the test with A498 renal, 12.1 µM; in the test with HCT-116 colon it was 11 µM; in the test with U251 CNS, above 59.4 µM; with SF-268 CNS, above 43.4 µM. The values for the TGI in the test on EKVX NSCLC, in the test with HS 578T breast and in the test on OVCAR-8 ovarian were 23.8 µM, above 55.4 µM and 27 µM, respectively.
